{
  "source": "ChEMBL document CHEMBL3132769",
  "about": "“Fragment growing to retain or alter the selectivity of anchored kinase hinge-binding fragments” (Medchemcomm, 2014)",
  "key": {"[1]": {"molecular_target": "Protein kinase C beta type (Homo sapiens) (UniProt P05771)", "test": "Inhibition of human full length PKC beta2 expressed in baculovirus assessed as substrate phosphorylation using fluorescence-labelled peptides as substrate at 0.2 uM after 90 mins by microfluidic peptide phosphorylation assay"}, "[2]": {"molecular_target": "T1, Serine/threonine-protein kinase Sgk1 (Homo sapiens) (UniProt O00141)", "T1 sequence (whole entry)": "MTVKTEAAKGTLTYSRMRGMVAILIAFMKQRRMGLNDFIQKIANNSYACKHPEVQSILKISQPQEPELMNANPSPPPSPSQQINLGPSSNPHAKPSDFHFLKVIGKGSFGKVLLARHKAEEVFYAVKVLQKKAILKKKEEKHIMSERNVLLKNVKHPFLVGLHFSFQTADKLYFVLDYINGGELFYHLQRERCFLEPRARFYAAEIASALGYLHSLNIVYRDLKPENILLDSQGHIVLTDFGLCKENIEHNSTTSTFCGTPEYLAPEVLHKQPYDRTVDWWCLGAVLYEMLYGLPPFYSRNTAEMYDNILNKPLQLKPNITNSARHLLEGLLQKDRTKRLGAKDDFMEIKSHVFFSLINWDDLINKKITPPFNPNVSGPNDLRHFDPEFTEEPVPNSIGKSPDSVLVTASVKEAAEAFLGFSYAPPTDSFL", "test": "Inhibition of human truncated SGK1 expressed in baculovirus assessed as substrate phosphorylation using fluorescence-labelled peptides as substrate at 0.2 uM after 90 mins by microfluidic peptide phosphorylation assay"}, "[3]": {"molecular_target": "Receptor-type tyrosine-protein kinase FLT3 (Homo sapiens) (UniProt P36888)", "sequence (P36888 whole entry, the tested form may be a part)": "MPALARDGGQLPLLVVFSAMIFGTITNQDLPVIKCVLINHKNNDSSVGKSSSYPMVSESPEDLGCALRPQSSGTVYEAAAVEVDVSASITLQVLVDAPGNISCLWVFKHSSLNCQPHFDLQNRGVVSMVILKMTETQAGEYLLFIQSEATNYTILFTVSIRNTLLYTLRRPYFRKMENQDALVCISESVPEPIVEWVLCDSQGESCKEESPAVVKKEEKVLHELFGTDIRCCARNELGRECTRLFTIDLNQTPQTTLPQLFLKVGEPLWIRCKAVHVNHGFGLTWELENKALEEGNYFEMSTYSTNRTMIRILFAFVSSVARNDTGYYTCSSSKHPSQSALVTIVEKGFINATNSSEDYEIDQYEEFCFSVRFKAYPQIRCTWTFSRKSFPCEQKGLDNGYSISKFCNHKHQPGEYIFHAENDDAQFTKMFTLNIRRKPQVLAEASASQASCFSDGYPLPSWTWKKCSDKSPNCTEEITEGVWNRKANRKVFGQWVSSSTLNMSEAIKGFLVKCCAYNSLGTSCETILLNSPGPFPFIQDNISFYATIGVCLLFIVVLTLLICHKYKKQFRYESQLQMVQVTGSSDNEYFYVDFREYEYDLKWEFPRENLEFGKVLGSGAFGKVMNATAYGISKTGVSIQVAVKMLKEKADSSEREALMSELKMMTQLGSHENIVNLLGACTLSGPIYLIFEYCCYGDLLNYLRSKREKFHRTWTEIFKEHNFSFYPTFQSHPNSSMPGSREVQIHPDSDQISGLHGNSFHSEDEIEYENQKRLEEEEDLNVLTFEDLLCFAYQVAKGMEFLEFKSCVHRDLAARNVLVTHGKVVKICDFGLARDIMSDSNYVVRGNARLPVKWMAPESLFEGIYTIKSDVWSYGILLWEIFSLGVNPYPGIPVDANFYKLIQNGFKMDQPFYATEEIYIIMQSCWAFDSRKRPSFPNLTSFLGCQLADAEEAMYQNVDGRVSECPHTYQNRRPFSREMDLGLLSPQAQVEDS", "test": "Inhibition of human FLT3 catalytic domain expressed in baculovirus assessed as substrate phosphorylation using fluorescence-labelled peptides as substrate at 95 uM after 90 mins by microfluidic peptide phosphorylation assay"}, "[4]": {"molecular_target": "T2, Interleukin-1 receptor-associated kinase 4 (Homo sapiens) (UniProt Q9NWZ3)", "T2 sequence (whole entry)": "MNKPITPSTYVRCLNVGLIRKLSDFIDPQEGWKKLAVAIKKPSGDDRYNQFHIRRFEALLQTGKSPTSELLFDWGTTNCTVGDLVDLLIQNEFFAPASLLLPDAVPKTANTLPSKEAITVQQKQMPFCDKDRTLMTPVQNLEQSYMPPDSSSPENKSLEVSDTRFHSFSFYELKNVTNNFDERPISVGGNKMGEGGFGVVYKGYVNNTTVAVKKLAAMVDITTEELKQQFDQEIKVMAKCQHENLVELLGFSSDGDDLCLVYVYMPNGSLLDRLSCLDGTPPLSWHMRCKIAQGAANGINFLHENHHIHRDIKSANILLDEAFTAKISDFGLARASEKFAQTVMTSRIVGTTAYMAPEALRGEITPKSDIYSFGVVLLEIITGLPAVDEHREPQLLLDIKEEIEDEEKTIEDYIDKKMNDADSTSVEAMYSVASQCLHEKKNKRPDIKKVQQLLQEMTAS", "test": "Inhibition of human IRAK4 catalytic domain expressed in baculovirus assessed as substrate phosphorylation using fluorescence-labelled peptides as substrate at 95 uM after 90 mins by microfluidic peptide phosphorylation assay"}, "[5]": {"molecular_target": "T3, Serine/threonine-protein kinase D1 (Homo sapiens) (UniProt Q15139)", "T3 sequence (whole entry)": "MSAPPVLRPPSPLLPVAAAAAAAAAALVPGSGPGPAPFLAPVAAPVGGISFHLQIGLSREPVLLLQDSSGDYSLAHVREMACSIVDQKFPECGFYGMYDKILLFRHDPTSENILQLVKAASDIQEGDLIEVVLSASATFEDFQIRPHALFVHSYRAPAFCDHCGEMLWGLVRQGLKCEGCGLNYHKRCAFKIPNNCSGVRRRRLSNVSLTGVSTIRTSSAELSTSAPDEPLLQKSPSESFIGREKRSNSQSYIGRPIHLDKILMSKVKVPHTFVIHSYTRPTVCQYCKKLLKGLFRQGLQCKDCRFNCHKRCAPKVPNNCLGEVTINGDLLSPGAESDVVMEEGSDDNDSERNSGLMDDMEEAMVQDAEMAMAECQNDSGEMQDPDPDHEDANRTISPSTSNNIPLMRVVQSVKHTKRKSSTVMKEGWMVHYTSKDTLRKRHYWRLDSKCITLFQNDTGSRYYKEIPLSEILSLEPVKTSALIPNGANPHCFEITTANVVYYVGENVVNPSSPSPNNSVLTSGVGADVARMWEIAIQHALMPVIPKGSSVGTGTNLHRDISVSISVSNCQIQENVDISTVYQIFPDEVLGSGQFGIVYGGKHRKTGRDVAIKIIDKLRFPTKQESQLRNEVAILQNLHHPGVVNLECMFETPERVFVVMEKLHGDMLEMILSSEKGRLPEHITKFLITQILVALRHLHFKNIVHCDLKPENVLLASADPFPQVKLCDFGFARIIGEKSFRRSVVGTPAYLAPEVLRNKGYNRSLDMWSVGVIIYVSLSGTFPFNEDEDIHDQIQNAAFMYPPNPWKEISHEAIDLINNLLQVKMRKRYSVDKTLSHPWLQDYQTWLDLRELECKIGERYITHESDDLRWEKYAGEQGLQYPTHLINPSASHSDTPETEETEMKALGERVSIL", "test": "Inhibition of human full length PKD1 expressed in baculovirus assessed as substrate phosphorylation using fluorescence-labelled peptides as substrate at 9 uM after 90 mins by microfluidic peptide phosphorylation assay"}, "[6]": {"molecular_target": "Tyrosine-protein kinase Fyn (Homo sapiens) (UniProt P06241)", "sequence (P06241 2-537 limits assumed)": "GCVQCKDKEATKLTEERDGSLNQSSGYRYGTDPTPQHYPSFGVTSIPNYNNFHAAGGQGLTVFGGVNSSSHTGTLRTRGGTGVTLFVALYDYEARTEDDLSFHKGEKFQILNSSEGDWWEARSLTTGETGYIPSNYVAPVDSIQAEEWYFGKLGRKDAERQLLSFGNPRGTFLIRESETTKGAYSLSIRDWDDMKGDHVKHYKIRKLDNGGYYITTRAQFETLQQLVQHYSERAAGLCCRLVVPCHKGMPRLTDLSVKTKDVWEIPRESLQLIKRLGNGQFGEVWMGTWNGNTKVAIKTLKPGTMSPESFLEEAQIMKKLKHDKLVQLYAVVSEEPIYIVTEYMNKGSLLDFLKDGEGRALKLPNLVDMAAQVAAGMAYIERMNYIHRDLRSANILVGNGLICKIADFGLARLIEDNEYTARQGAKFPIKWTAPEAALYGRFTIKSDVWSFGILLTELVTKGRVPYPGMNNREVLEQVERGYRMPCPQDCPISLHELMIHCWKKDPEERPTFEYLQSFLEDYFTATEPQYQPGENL", "test": "Inhibition of human full length FYN expressed in baculovirus assessed as substrate phosphorylation using fluorescence-labelled peptides as substrate at 9 uM after 90 mins by microfluidic peptide phosphorylation assay"}, "[7]": {"molecular_target": "Vascular endothelial growth factor receptor 2 (Homo sapiens) (UniProt P35968)", "sequence (P35968 whole entry, the tested form may be a part)": "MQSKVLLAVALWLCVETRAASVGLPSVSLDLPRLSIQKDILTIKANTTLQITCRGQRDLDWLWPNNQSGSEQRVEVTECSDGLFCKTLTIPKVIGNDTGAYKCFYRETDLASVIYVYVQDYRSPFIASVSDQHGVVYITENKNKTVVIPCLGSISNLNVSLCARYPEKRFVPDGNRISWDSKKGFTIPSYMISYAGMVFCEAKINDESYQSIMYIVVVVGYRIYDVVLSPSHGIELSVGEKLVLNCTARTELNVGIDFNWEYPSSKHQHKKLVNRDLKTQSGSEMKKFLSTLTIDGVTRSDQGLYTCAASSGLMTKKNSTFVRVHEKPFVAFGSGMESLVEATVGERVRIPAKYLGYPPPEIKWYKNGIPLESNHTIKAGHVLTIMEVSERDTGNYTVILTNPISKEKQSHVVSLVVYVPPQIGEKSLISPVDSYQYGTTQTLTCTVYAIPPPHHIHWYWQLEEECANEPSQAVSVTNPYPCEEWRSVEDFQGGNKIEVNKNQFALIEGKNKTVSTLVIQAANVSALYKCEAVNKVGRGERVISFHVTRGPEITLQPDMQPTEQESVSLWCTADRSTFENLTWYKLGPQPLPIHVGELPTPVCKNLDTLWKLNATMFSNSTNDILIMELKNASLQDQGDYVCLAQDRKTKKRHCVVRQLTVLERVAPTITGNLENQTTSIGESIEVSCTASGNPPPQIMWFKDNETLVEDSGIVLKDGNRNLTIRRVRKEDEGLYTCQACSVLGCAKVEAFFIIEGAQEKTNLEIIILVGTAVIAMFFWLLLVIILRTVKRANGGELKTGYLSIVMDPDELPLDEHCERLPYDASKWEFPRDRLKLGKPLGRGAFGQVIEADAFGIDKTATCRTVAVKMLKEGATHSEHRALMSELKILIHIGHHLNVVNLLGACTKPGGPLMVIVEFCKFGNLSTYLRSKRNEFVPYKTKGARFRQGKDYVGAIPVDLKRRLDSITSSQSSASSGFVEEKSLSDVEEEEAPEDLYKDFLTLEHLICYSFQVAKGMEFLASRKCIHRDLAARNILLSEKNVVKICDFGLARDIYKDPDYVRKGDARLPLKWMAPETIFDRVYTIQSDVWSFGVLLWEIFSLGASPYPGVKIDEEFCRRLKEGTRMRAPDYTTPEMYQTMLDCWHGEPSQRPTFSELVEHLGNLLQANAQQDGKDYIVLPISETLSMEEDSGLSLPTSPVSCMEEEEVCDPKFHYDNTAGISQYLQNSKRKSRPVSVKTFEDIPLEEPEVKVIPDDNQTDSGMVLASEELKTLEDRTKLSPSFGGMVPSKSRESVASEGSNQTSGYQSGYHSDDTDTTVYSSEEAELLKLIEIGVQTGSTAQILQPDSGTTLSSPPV", "test": "Inhibition of human KDR cytoplasmic domain expressed in baculovirus assessed as substrate phosphorylation using fluorescence-labelled peptides as substrate at 9 uM after 90 mins by microfluidic peptide phosphorylation assay"}, "[8]": {"molecular_target": "Ribosomal protein S6 kinase alpha-1 (Homo sapiens) (UniProt Q15418)", "sequence (Q15418 whole entry)": "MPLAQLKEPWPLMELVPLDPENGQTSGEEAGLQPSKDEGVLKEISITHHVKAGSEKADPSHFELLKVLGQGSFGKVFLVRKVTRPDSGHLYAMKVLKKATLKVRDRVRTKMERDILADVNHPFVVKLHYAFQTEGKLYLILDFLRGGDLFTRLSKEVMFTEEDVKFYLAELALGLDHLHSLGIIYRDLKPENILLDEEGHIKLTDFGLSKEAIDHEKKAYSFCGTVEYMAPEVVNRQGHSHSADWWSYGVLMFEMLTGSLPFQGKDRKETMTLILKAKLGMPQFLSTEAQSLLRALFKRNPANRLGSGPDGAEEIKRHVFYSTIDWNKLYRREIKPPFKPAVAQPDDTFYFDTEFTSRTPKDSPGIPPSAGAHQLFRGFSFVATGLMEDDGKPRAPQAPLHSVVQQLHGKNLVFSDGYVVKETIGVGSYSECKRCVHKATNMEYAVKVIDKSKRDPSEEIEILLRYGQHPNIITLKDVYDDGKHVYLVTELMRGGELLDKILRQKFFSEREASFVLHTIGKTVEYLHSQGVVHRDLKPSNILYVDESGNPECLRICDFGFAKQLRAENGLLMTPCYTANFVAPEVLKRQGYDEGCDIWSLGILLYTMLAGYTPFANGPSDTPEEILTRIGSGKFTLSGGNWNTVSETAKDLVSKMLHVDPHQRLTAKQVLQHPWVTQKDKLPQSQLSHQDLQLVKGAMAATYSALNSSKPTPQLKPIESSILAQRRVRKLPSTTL", "test": "Inhibition of human full length RSK1 expressed in baculovirus assessed as substrate phosphorylation using fluorescence-labelled peptides as substrate at 2 uM after 90 mins by microfluidic peptide phosphorylation assay"}, "[9]": {"molecular_target": "Ribosomal protein S6 kinase alpha-5 (Homo sapiens) (UniProt O75582)", "test": "Inhibition of human full length MSK1 expressed in baculovirus assessed as substrate phosphorylation using fluorescence-labelled peptides as substrate at 2 uM after 90 mins by microfluidic peptide phosphorylation assay"}, "[10]": {"molecular_target": "Cyclin-dependent kinase 2 (Homo sapiens) (UniProt P24941)", "test": "Inhibition of human full length CDK2 expressed in baculovirus assessed as substrate phosphorylation using fluorescence-labelled peptides as substrate at […] after 90 mins by microfluidic peptide phosphorylation assay"}, "[11]": {"molecular_target": "Hepatocyte growth factor receptor (Homo sapiens) (UniProt P08581)", "sequence (P08581 whole entry, the tested form may be a part)": "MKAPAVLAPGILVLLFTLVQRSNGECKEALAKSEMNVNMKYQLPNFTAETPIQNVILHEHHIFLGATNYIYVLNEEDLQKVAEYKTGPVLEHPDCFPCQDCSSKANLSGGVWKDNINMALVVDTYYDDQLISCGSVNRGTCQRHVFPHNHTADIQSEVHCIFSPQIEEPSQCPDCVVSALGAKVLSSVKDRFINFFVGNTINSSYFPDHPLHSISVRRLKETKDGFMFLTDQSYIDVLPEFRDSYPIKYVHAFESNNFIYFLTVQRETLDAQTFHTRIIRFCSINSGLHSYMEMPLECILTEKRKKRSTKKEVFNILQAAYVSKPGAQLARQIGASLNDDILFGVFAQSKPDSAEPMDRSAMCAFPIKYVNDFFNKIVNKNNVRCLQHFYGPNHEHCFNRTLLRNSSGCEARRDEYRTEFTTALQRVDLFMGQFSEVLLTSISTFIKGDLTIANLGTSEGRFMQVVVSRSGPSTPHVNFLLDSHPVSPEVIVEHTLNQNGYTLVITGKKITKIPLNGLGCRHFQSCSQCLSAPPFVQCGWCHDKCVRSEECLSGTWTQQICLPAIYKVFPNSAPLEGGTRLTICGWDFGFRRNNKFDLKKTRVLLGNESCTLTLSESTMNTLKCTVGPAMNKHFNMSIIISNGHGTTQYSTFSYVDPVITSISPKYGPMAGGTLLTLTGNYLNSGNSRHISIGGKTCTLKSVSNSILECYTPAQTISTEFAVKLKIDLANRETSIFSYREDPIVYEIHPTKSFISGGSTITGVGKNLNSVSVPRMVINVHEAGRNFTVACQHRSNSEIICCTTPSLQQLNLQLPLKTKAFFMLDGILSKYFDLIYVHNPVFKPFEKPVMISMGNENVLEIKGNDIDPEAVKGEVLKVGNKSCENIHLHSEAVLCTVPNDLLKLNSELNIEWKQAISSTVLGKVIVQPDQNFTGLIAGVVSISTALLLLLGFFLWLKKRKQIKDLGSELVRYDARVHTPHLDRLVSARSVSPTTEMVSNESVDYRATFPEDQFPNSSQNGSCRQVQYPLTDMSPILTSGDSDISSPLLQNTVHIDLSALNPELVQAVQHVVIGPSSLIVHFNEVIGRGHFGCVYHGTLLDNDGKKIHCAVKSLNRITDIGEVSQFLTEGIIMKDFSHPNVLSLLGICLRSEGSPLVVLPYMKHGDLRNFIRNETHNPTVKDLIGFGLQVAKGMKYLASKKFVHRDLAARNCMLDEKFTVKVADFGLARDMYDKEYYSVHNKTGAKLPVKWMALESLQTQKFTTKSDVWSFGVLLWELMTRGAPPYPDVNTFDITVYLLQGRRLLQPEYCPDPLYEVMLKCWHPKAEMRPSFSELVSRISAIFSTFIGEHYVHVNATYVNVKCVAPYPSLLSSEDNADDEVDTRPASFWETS", "test": "Inhibition of human MET cytoplasmic domain expressed in baculovirus assessed as substrate phosphorylation using fluorescence-labelled peptides as substrate at 8 uM after 90 mins by microfluidic peptide phosphorylation assay"}},
  "data": [
    {"smiles": "Clc1ccc(C2(c3ccc(-c4ncnc5[nH]cnc45)cc3)CCNCC2)cc1", "values": [
      {"measurement": "inhibition", "setting": "[1]", "value": 38.5, "unit": "%"},
      {"measurement": "inhibition", "setting": "[2]", "value": 33, "unit": "%"}
    ]},
    {"smiles": "NCCc1ccc(-c2ncnc3[nH]cnc23)cc1", "values": [
      {"measurement": "inhibition", "setting": "[3]", "value": 49.5, "unit": "%"},
      {"measurement": "inhibition", "setting": "[4]", "value": 34, "unit": "%"}
    ]},
    {"smiles": "NCC1CN(c2ncnc3[nH]c4cnccc4c23)CCO1", "note": "(stereo unspecified)", "values": [
      {"measurement": "inhibition", "setting": "[5]", "value": 76, "unit": "%"},
      {"measurement": "inhibition", "setting": "[6]", "value": 29.5, "unit": "%"},
      {"measurement": "inhibition", "setting": "[7]", "value": 63.5, "unit": "%"}
    ]},
    {"smiles": "NC1CCN(c2ncnc3[nH]ccc23)CC1", "values": [
      {"measurement": "inhibition", "setting": "[8]", "value": 7.5, "unit": "%"},
      {"measurement": "inhibition", "setting": "[9]", "value": 0.5, "unit": "%"}
    ]},
    {"smiles": "COC(=O)c1cnc(Nc2cnc(C#N)cn2)cc1NCC1CCNCC1", "values": [
      {"measurement": "inhibition", "setting": "[10]", "value": 6, "unit": "%"}
    ]},
    {"smiles": "NCC1CCN(c2ncnc3[nH]ccc23)CC1", "values": [
      {"measurement": "inhibition", "setting": "[11]", "value": 9, "unit": "%"}
    ]}
  ]
}
